Laboratory results from patent publication US8648012B2, “Herbicidal compositions comprising naptalam” (BASF SE, priority 2009, dated 2014).

What was measured:
TRZAW = experiment: Example 5: postemergence wheat selectivity of dicamba plus naptalam; format: in vivo, Triticum aestivum; conditions: 8 DAT
Protocol: (§1) In all use examples, plants were grown in a greenhouse environment.
(§2) Naptalam was used as a commercial SL formulation containing 240 g/l of naptalam (Alanap-L from Cheminova). Clopyralid was used as a commercial SL formulation containing 360 g/l of clopyralid (Stinger of Dow Agroscience). Picloram was used as a commercial SL formulation containing 240 g/l of picloram (Tordon 22K of Dow Agroscience). A mixture of 2,4-D+MCPP+Dicamba was used as a commercial SL formulation containing 283 g/l of 2,4-D, 63 g/l of MCPP and 25 g/l of Dicamba (Trimec Classic of PBI Gordon Corp.). Dicamba was used as a commercial SL formulation containing 480 g/l of Dicamba (Clarity BASF).
(§3) The evaluation for the plant damage or injury caused by the chemical compositions was carried out using a scale from 0 to 100%, when compared with the untreated control plants. Here, 0 means no damage and 100 means complete destruction of the plants. I50 values were estimated from % injury data at different application rates by non-linear regression of log-logistic dose-response curves.
Seedlings of TRZAW were treated with five different rates of dicamba between 14 and 1400 g ae/ha when they were 12-14 cm in height. In addition, DFFP or naptalam at 70 g ae/ha were applied either alone or in combination with dicamba treatments. All treatment mixtures contained 0.25% (v/v) non-ionic surfactant plus 1% (w/v) ammonium sulfate. Following treatment, plants were placed in a completely randomized design with four replications per treatment. Percent injury data was collected 8 DAT.

[1] = test system: tall fescue (Festuca arundinacea, FESAR); experiment: Example 4: postemergence turf selectivity of dicamba plus naptalam; format: in vivo; conditions: 13 DAT
Protocol: as §1, §2, §3
(§4) Seedlings of tall fescue (Festuca arundinacea, FESAR) or perennial ryegrass (Lolium perenne, LOLPE) were treated with five different rates of dicamba between 28 and 2800 g ae/ha when they were 10-14 cm in height. DFFP or naptalam at rates of 140 g ae/ha were applied either alone or in combination with dicamba treatments. All treatment mixtures contained 0.25% (v/v) non-ionic surfactant plus 1% (w/v) ammonium sulfate. Following treatment, plants were placed in a completely randomized design with four replications per treatment. Percent injury data was collected 13 DAT.

[2] = test system: perennial ryegrass (Lolium perenne, LOLPE); experiment: as above; format: in vivo; conditions: 13 DAT
Protocol: as §1, §2, §3, §4

[3] = test system: Winter wheat (Triticum aestivum, TRZAW); experiment: Example 3: preemergence crop selectivity of dicamba plus naptalam; format: in vivo; conditions: 13 DAT
Protocol: as §1, §2, §3
Winter wheat (Triticum aestivum, TRZAW) seeds were sown into soil, and the following day treated with five different rates of dicamba between 5.6 and 560 g ae/ha. Diflufenzopr (DFFP) or naptalam at rates of 224 g ae/ha was applied either alone or in combination with dicamba treatments. Following application, pots were placed in a completely randomized design with four replications per treatment. Percent injury data was collected 13 DAT.

CHEAL = conditions: naptalam 0 g ae/ha
Protocol: as §1, §2, §3
(§5) Seedlings of ABUTH or CHEAL were treated with five different rates of dicamba between 0.14 and 140 g ae/ha when they were 10-12 cm in height. Naptalam was mixed with dicamba at rates of 0, 28, 35, 47, 70, or 140 g ae/ha to each dose-response series. All treatment mixtures included the addition of 0.25% (v/v) non-ionic surfactant and 1% (w/v) ammonium sulfate. Plants were placed in a completely randomized design with four replications per treatment. Percent injury data was collected 11 DAT and used to estimate the amount of dicamba necessary to obtain 50% injury (I50). […] estimates for solo applications of dicamba (I50 (—NPA)) were compared with I50 estimates for the combined application of dicamba and naptalam (I50 (+NPA)) to determine the relative increase of dicamba activity through the addition of naptalam.

ABUTH = conditions: naptalam 0 g ae/ha
Protocol: as §1, §2, §3, §5

[4] = test system: Palmer amaranth (Amaranthus palmeri; AMAPA); experiment: Example 1: postemergence weed control of dicamba plus naptalam mixtures, greenhouse; format: in vivo; conditions: 10 DAT
Protocol: as §1, §2, §3
(§6) 22 ff. E=X+Y−(X·Y/100) where • X=effect in percent using herbicide A at an application rate a; • Y=effect in percent using herbicide B at an application rate b; • E=expected effect (in %) of A+B at application rates a+b.
(§7) The value E corresponds to the effect (plant damage or injury) which is to be expected if the activity of the individual compounds is just additive. If the observed effect is higher than the value E calculated according to Colby, a synergistic effect is present.
(§8) Seedlings of velvetleaf (Abutilon theophrasti; ABUTH), Palmer amaranth (Amaranthus palmeri; AMAPA), and common lambsquarters (Chenopodium album; CHEAL) were treated with postemergence applications of either dicamba at 140 or 280 g ae/ha, naptalam at 56 g ae/ha, or the combination of dicamba and naptalam at 140 and 56 g ae/ha, respectively, when they were 10-12 cm in height. All treatment mixtures contained 0.25% (v/v) non-ionic surfactant plus 1% (w/v) ammonium sulfate. Plants were placed in a completely randomized design with four replications per treatment. Percent injury data was collected 10 days after treatment (DAT).

[5] = test system: velvetleaf (Abutilon theophrasti; ABUTH); experiment: as above; format: in vivo; conditions: 10 DAT
Protocol: as §1, §2, §3, §6, §7, §8

[6] = test system: common lambsquarters (Chenopodium album; CHEAL); experiment: as above; format: in vivo; conditions: 10 DAT
Protocol: as §1, §2, §3, §6, §7, §8

[7] = test system: common amaranth (Amaranthus retroflexus AMARE); experiment: Example 6: weed control of clopyralid or picloram plus naptalam mixtures; format: in vivo; conditions: postemergence
Protocol: (§9) Seedlings of common amaranth (Amaranthus retroflexus AMARE) and common lambsquarters (Chenopodium album; CHEAL), each 8 to 10 cm in height, were treated with postemergence applications of either clopyralid at 53.5 g ae/ha, picloram at 5.6 g ae/ha or naptalam at 140 g ae/ha, or the combination of clopyralid and naptalam at 53.5 g ae/ha and 140 g ae/ha, or the combination of picloram and naptalam at 5.6 g ae/ha and 140 g ae/ha, respectively, when they were 8-10 cm in height. All treatment mixtures contained 0.25% (v/v) non-ionic surfactant. […] Percent injury data was collected 10 days after treatment (DAT).

[8] = test system: common lambsquarters (Chenopodium album; CHEAL); experiment: as above; format: in vivo; conditions: postemergence
Protocol: as §9

[9] = test system: sunflower (helianthus sp. HELSS); experiment: Example 7: weed control of 2,4-D+MCPP+dicamba+naptalam mixtures; format: in vivo; conditions: postemergence, naptalam 56 g ae/ha
Protocol: as §1, §2, §3
Plants were placed in a completely randomized design with four replications per treatment. Percent injury data was collected 10 days after treatment (DAT).

[10] = test system: sunflower (helianthus sp. HELSS); experiment: Example 8: weed control of clopyralid+naptalam mixtures; format: in vivo; conditions: postemergence
Protocol: Seedlings of sunflower (helianthus sp. HELSS) were treated with postemergence applications of either clopyralid at 210 g ae/ha or at 105 g ae/ha, or naptalam at 56 g ae/ha, or the combination of clopyralid and naptalam at 210+56 g ae/ha or at 105+56 g ae/ha, respectively, when they were 8-10 cm in height. All treatment mixtures contained 0.25% (v/v) non-ionic surfactant. […] Percent injury data was collected 10 days after treatment (DAT).

[11] = DFFP 140 g ae/ha alone (dicamba 0)
[12] = naptalam 140 g ae/ha alone (dicamba 0)

Compound: C/C(=N\NC(=O)Nc1cc(F)cc(F)c1)c1ncccc1C(=O)O [DFFP, diflufenzopyr]
- TRZAW Mean % Injury (TRZAW; DFFP 70 g ae/ha alone (dicamba 0)): 8.8%
- FESAR Mean % Injury [1, 11]: 38.8 b %
- LOLPE Mean % Injury [2, 11]: 30.0 c %
- TRZAW Mean % Injury ([3]; DFFP 224 g ae/ha alone (dicamba 0)): 61.3%

Compound: COc1c(Cl)ccc(Cl)c1C(=O)O [Dicamba, 3,6-dichloro-2-methoxybenzoic acid]
- CHEAL I50 (amount of dicamba for 50% injury) (CHEAL; 11 DAT): 35.2 g ae/ha
- CHEAL Fold-increase of dicamba activity = I50 (-NPA)/I50(+NPA) (CHEAL): 1.0
- ABUTH I50 (amount of dicamba for 50% injury) (ABUTH; 11 DAT): 80.2 g ae/ha
- ABUTH Fold-increase of dicamba activity = I50 (-NPA)/I50(+NPA) (ABUTH): 1.0
- TRZAW Mean % Injury (TRZAW; dicamba alone 14.0 g ae/ha): 0%
- TRZAW Mean % Injury (TRZAW; dicamba alone 44.0 g ae/ha): 2.5%
- TRZAW Mean % Injury (TRZAW; dicamba alone 140 g ae/ha): 5.0%
- TRZAW Mean % Injury (TRZAW; dicamba alone 440 g ae/ha): 25.0%
- TRZAW Mean % Injury (TRZAW; dicamba alone 1400 g ae/ha): 50.0%
- Mean % Control AMAPA ([4]; dicamba 140 g ae/ha): 80.0%
- Mean % Control AMAPA ([4]; dicamba 280 g ae/ha): 96.3%
- Mean % Control ABUTH ([5]; dicamba 140 g ae/ha): 65.0%
- Mean % Control ABUTH ([5]; dicamba 280 g ae/ha): 91.3%
- Mean % Control CHEAL ([6]; dicamba 140 g ae/ha): 86.3%
- Mean % Control CHEAL ([6]; dicamba 280 g ae/ha): 98.5%
- FESAR Mean % Injury ([1]; dicamba alone 28.0 g ae/ha): 0 c %
- FESAR Mean % Injury ([1]; dicamba alone 88.5 g ae/ha): 2.5 c %
- FESAR Mean % Injury ([1]; dicamba alone 280 g ae/ha): 5.0 c %
- FESAR Mean % Injury ([1]; dicamba alone 885 g ae/ha): 7.5 c %
- FESAR Mean % Injury ([1]; dicamba alone 2800 g ae/ha): 32.5 b %
- LOLPE Mean % Injury ([2]; dicamba alone 28.0 g ae/ha): 0 e %
- LOLPE Mean % Injury ([2]; dicamba alone 88.5 g ae/ha): 0 e %
- LOLPE Mean % Injury ([2]; dicamba alone 280 g ae/ha): 0 e %
- LOLPE Mean % Injury ([2]; dicamba alone 885 g ae/ha): 0 e %
- LOLPE Mean % Injury ([2]; dicamba alone 2800 g ae/ha): 7.5 de %
- TRZAW Mean % Injury ([3]; dicamba alone 5.6 g ae/ha): 0%
- TRZAW Mean % Injury ([3]; dicamba alone 17.7 g ae/ha): 0%
- TRZAW Mean % Injury ([3]; dicamba alone 56.0 g ae/ha): 0%
- TRZAW Mean % Injury ([3]; dicamba alone 177.0 g ae/ha): 0%
- TRZAW Mean % Injury ([3]; dicamba alone 560.0 g ae/ha): 76.3%

Compound: Nc1c(Cl)c(Cl)nc(C(=O)O)c1Cl [Picloram, picloram]
- Mean % Control (10 DAT) AMARE ([7]; picloram 5.6 g ae/ha): 43%
- Mean % Control (10 DAT) CHEAL ([8]; picloram 5.6 g ae/ha): 43%

Compound: O=C(O)c1ccccc1C(=O)Nc1cccc2ccccc12 [Naptalam, N-1-naphthylphthalamic acid]
- Mean % Control (10 DAT) AMARE ([7]; naptalam 140 g ae/ha): 0%
- Mean % Control (10 DAT) CHEAL ([8]; naptalam 140 g ae/ha): 5%
- TRZAW Mean % Injury (TRZAW; naptalam 70 g ae/ha alone (dicamba 0)): 0%
- Mean % Control AMAPA ([4]; naptalam 56 g ae/ha): 18.8%
- Mean % Control ABUTH ([5]; naptalam 56 g ae/ha): 0%
- Mean % Control CHEAL ([6]; naptalam 56 g ae/ha): 0%
- Mean % Control (10 DAT) HELSS [9]: 12%
- FESAR Mean % Injury [1, 12]: 0 c %
- LOLPE Mean % Injury [2, 12]: 0 e %
- Mean % Control (10 DAT) HELSS ([10]; naptalam 56 g ae/ha): 10%
- TRZAW Mean % Injury ([3]; naptalam 224 g ae/ha alone (dicamba 0)): 0%

Compound: O=C(O)c1nc(Cl)ccc1Cl [Clopyralid, clopyralid]
- Mean % Control (10 DAT) AMARE ([7]; clopyralid 53.5 g ae/ha): 23%
- Mean % Control (10 DAT) CHEAL ([8]; clopyralid 53.5 g ae/ha): 25%
- Mean % Control (10 DAT) HELSS ([10]; clopyralid 105 g ae/ha): 28%
- Mean % Control (10 DAT) HELSS ([10]; clopyralid 210 g ae/ha): 83%
